In patent publication US7651846B2, “Treatment and diagnosis of conditions associated with elevated arginase activity” (Children's Hospital & Research Center at Oakland, priority 2003, dated 2010):

Experiments:
[1] = tested on: Patients with sickle cell disease and documented pulmonary hypertension; test: Oral L-arginine in sickle cell disease patients with pulmonary hypertension, Doppler echocardiography; assay type: in vivo, human
Source text: Sickle cell patients. Seventeen sickle cell disease patients with documented pulmonary hypertension at steady-state were enrolled in the study. All known patients with pulmonary hypertension receiving care at the Northern California Comprehensive Sickle Cell Center were approached for participation in this analysis. Twelve patients were homozygous for hemoglobin S, three patients had hemoglobin type SC, and two patient had hemoglobin S β-thalassemia. The mean age of patients was 32.7±15 years with a range of 13 to 63 years. There were seven women enrolled. Ten ethnically matched normal non-sickle cell disease volunteers were enrolled as a control group in order to compare amino acid levels and arginase activity. The mean age was 20.6±10 years, ranging from 10 to 34 years. There were four females and six males enrolled. Pulmonary hypertension was defined as estimated pulmonary artery pressures >30 mm Hg by echocardiogram (or tricuspid regurgitant jet velocity of greater than 2.5 m/sec), >two months duration, not associated with acute chest syndrome. A chart review was performed on all patients to obtain tricuspid regurgitant jet velocity data from previous echocardiograms.
(§1) Patients with sickle cell disease and documented pulmonary hypertension by echocardiography were treated with oral L-arginine-HCl, at a dose of 0.1 g/kg TID for five days. […] Blood samples for determination of amino acid levels were drawn in the morning of Day 0 (pre-treatment), […], and Day six of the study. Arginase activity levels were determined on Day 0. No patients were being concurrently treated with vasodilators or anticoagulant agents, and no patients received a red blood cell transfusion during the five-day study period. Cardiologists involved in the interpretation of echocardiograms were unaware of the therapy given.
Echocardiography. […] They were the only patient found to not show an improvement in pulmonary hypertension by echocardiogram.
Results were unavailable from outside hospitals in three patients. […]

[2] = Plasma amino acid levels after oral L-arginine supplementation in SCD patients with pulmonary hypertension; assay type: in vivo, human; settings: after five days of oral L-arginine supplementation, n=10, p<0.05
Procedure: Amino Acid Levels. (A complete amino acid panel, including arginine, citrulline, ornithine, and L-arginine analogue asymmetric di-methyl-L-arginine). Quantitative plasma amino acid levels are measured in μmol/L, using a Beckman 6300 amino acid analyzer. The amino acids are separated on an lithium ion exchange column and then reacted with ninhydrin to generate a color response. The data is collected and analyzed using Beckman 32 Karat software, at the Molecular Structure Facility, University of California, Davis, Calif.
as §1

[3] = tested on: patients with a known diagnosis of asthma; settings: single oral dose 0.1 gm/kg, one patient
Procedure: The effects of arginine supplementation on pulmonary function tests is evaluated by administering supplemental arginine (oral or intravenous) alone or in conjunction with magnesium and/or an arginase inhibitor to patients with a known diagnosis of asthma, defined as ≧3 wheezing episodes and a past history of asthma medication usage (e.g., bronchodilators, steroids, inhaled steroids, or leukotriene inhibitors etc). Pulmonary function tests are performed before and after a single dose of arginine (0.1 gram/kg to a max of 10 grams).
A single dose of oral arginine (0.1 gm/kg) was administered. Pulmonary function tests were determined prior to treatment and 2 hours after arginine supplementation.

[4] = tested on: hyperresponsiveness of reactive airways; settings: animal studies, inhalation of low doses; cited from earlier work
cystic fibrosis patients = settings: inhaled; cited from earlier work
[5] = tested on: normal and asthmatic subjects; settings: inhaled, dose-dependent; cumulative effect higher in asthmatic subjects; cited from earlier work
patients with asthma = settings: oral; cited from earlier work
asthma patients = settings: nebulised, steroid naive asthma; cited from earlier work
[6] = tested on: cationic amino acid molecules (Cationic Amino Acid Transporter, CAT); settings: read-out: Km for arginine transport; cited from earlier work
arginase = settings: cited from earlier work

SMILES	pulmonary artery systolic pressure after therapy ([1]; oral 0.1 g/kg TID for five days, baseline 63.9±13 mmHg, p=0.002) [mmHg]	mean reduction of pulmonary artery systolic pressure ([1]; oral L-arginine-HCl 0.1 g/kg TID, after five days of therapy, p=0.002) [%]	follow-up echocardiography (pulmonary artery systolic pressure) ([1]; ≧one month after arginine therapy, nine compliant patients: four reverted to baseline, four persistent improvement, one worsening)	plasma L-arginine concentration [2]	plasma ornithine concentration [2]	FIF 50% improvement ([3]; 2 hours after) [%]	effect on lung volumes ([3]; 2 hours after)	effect on spirometry ([3]; 2 hours after)	airway conductance, Gaw increase ([3]; within 2 hours) [%]	airway resistance, Raw decrease ([3]; within 2 hours) [%]	oxygen saturation by venous blood gas after treatment ([3]; increase from 85 %) [%]	hyperresponsiveness of reactive airways [4]	pulmonary functions (cystic fibrosis patients)	exhaled NO [5]	airway hyperresponsiveness to histamine as reflected by PC(20) (patients with asthma)	exhaled NO following administration (asthma patients)	Km [6] [µM]	inhibition of arginase activity (arginase)
N=C(N)NCCC[C@H](N)C(=O)O [L-arginine]	54.2±12	15.2	mixed results	increased significantly	increased significantly	23	minimal effect	did not significantly effect spirometry	28	22	92	completely blocked	improves	increased	does not influence	increased	~100	
NC(=NCCC[C@H](N)C(=O)O)NO [NG-hydroxyl-L-arginine]																		potent inhibitor
N=C(N)NCCC[C@@H](N)C(=O)O [D-arginine]																increased		
